In patent publication US9776962B2, “Aromatic compounds with GPR40 agonistic activity” (TAKEDA PHARMACEUTICAL COMPANY LIMITED, priority 2013, dated 2017):
Marks after values point to notes of the source that are not given here.

Legend:
N-STZ-1.5 rats = assay: Oral glucose tolerance test using N-STZ-1.5 rats (glucose-lowering effects and insulinotropic action); format: in vivo, rat; conditions: 3 mg/kg body weight oral, 1 hr before glucose loading 1.5 g/kg, male N-STZ-1.5 rats, n=6; for blood glucose decrease rate (%): glucose AUC (0-60 min) vs control group; for insulin increase rate (fold): insulin AUC (0-60 min) test group/control group
Method: The glucose-lowering effects and insulinotropic action of the compound of the present invention were evaluated by an oral glucose tolerance test using N-STZ-1.5 rats.
Streptozotocin (120 mg/kg) was subcutaneously administered to 1 or 2 days-old male Wistar Kyoto rats to prepare type 2 diabetic model N-STZ-1.5 rats. The rats were allowed free access to standard laboratory chow diet (CE-2, CLEA Japan, Inc.).
Male N-STZ-1.5 rats (25-week-old) were fasted for 15-17 hr, and the body weight was measured. Heparin (Ajinomoto Co., Inc.) as an anticoagulant and aprotinin (SIGMA) as a protease inhibitor were added, blood samples were collected from tail vein. The blood was centrifuged, the concentrations of glucose and triglyceride in plasma were measured, and the rats were divided into each group (n=6) based on these parameters. A 0.5% methylcellulose (control group) or a 0.5% methylcellulose suspension containing a test compound (3 mg/kg body weight) was orally administered to the rats at 5 ml/kg and, 1 hr after the administration, glucose solution (Otsuka Pharmaceutical Co., Ltd.) was orally administered at 1.5 g/7.5 ml/kg. Immediately before (0 min value) and 10, 30 and 60 min after the glucose loading, blood was drawn from the tail vein, centrifuged, and the concentrations of glucose and insulin in plasma were measured. The glucose and triglyceride concentrations were measured by automatic analysis apparatus 7180 (Hitachi, Ltd.), and the insulin concentration was measured by rat insulin radioimmunoassay kit (MIllipore). The area under glucose curve (AUC) and insulin AUC were calculated using the following formulas, and the blood glucose decrease rate (%) and insulin increase rate (fold) were calculated by the following formulas from the obtained AUCs. A statistical significant difference from the control group was analyzed by the Dunnett's test or Steel's test.
Glucose AUC (0-60 Min): {(0 min glucose in plasma)+(10 min glucose in plasma)}×10/2+{(10 min glucose in plasma)+(30 min glucose in plasma)}×20/2+{(30 min glucose in plasma)+(60 min glucose in plasma)}×30/2 insulin AUC (0-60 Min): {(0 min insulin in plasma)+(10 min insulin in plasma)}×10/2+{(10 min insulin in plasma)+(30 min insulin in plasma)}×20/2+{(30 min insulin in plasma)+(60 min insulin in plasma)}×30/2 Blood Glucose Decrease Rate (%): [(test compound administration group glucose AUC/control group glucose AUC)−1]×100 insulin Increase Rate (Fold):
test compound administration group insulin AUC/control group insulin AUC

human GPR40 = target: T1, human GPR40 (Homo sapiens, UniProt O14842); assay: Evaluation of human GPR40 agonist activity with increase in intracellular Ca2+ concentration as an index (FLIPR); format: cell-based; conditions: test compound 1 μM; CHO(dhfr−) cells stably expressing human GPR40; 100% = 10 μM compound of Example 153, 0% = DMSO
T1 construct: expressed in transfected cells
In short: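 CHO(dhfr−) cells stably expressing full-length human GPR40 were loaded with Ca2+ probe for 1 h at room temperature, then given test compound at 1 μM final. Fluorescence was followed on FLIPR, with activity scaled to a reference agonist at 10 μM (100%) and DMSO (0%).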

T1 sequence (O14842 whole entry): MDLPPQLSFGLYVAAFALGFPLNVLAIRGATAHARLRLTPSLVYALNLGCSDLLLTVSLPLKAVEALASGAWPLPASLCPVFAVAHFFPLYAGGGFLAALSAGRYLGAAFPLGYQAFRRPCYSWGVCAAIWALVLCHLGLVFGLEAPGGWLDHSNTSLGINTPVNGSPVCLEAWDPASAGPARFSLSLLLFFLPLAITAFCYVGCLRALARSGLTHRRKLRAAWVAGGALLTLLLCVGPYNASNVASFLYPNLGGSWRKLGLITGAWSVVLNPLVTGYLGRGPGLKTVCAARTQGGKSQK

SMILES	Activity (human GPR40 agonist activity) (human GPR40) [%]	activation at 1 µM (human GPR40) [%]	blood glucose decrease rate (%) (N-STZ-1.5 rats)	insulin increase rate (fold) (N-STZ-1.5 rats)
COc1ccc(C(=O)N(CC(C)(C)C)c2ncccn2)c(N2CCC(COc3cc(C(CC(=O)O)C4CC4)ccn3)CC2)c1 (centres unmarked) [Example 184, 3-cyclopropyl-3-(2-((1-(2-((2,2-dimethylpropyl)(pyrimidin-2-yl)carbamoyl)-5-methoxyphenyl)piperidin-4-yl)methoxy)pyridin-4-yl)propanoic acid]			27.9^$ %	1.4 fold
COc1ccc(C(=O)N(CC(C)(C)F)c2cc(C)ccn2)c(N2CCC(COc3cc(C(CC(=O)O)C4CC4)ccn3)CC2)c1 (centres unmarked) [Example 185, 3-cyclopropyl-3-(2-((1-(2-((2-fluoro-2-methylpropyl)(4-methylpyridin-2-yl)carbamoyl)-5-methoxyphenyl)piperidin-4-yl)methoxy)pyridin-4-yl)propanoic acid]			30.8^$ %	1.6 fold
COc1ccc(C(=O)N(CC(C)(C)C)c2ccccn2)c(N2CCC(COc3cccc(C(CC(=O)O)C4CC4)c3)C(F)(F)C2)c1 [Example 281, (3S)-cyclopropyl-3-(3-((1-(2-((2,2-dimethylpropyl)-(pyridin-2-yl)carbamoyl)-5-methoxyphenyl)-3,3-difluoropiperidin-4-yl)methoxy)phenyl)-propanoic acid]		92		
COc1cc(N2CCC(COc3cc(C(CC(=O)O)C4CC4)ccn3)CC2)c(C(=O)N(CC(C)(C)C)c2cc(C)cc(C)n2)cn1 (centres unmarked) [Example 284, 3-cyclopropyl-3-(2-((1-(5-((2,2-dimethylpropyl) (4,6-dimethylpyridin-2-yl)-carbamoyl)-2-methoxypyridin-4-yl)-piperidin-4-yl)-methoxy)pyridin-4-yl)propanoic acid]		103		
COc1cc(N2CCC(COc3cc(C(CC(=O)O)C4CC4)ccn3)CC2)c(C(=O)N(CC2CC2)c2cc(C)cc(C)n2)cn1 (centres unmarked) [Example 285, 3-cyclopropyl-3-(2-((1-(5-((cyclopropylmethyl) (4,6-dimethylpyridin-2-yl)carbamoyl)-2-methoxypyridin-4-yl)piperidin-4-yl)methoxy)pyridin-4-yl)propanoic acid]		99		
COc1cc(N2CCC(COc3cc(C(CC(=O)O)C4CC4)ccn3)CC2)c(C(=O)N(CC(C)(C)C)c2cc(C)nc(C)n2)cn1 (centres unmarked) [Example 286, 3-cyclopropyl-3-(2-((1-(5-((2,2-dimethylpropyl) (2,6-dimethylpyrimidin-4-yl)carbamoyl)-2-methoxypyridin-4-yl)piperidin-4-yl)methoxy)pyridin-4-yl)propanoic acid]		107		
COc1ncc(C(=O)N(CC(C)(C)C)c2cccc(C)n2)c(N2CCC(COc3cc(C(CC(=O)O)C4CC4)ccn3)CC2)n1 (centres unmarked) [Example 287, 3-cyclopropyl-3-(2-((1-(5-((2,2-dimethylpropyl) (6-methylpyridin-2-yl)carbamoyl)-2-methoxypyrimidin-4-yl)piperidin-4-yl)methoxy)pyridin-4-yl)propanoic acid]		82		

The next lines start with results.

Activity (human GPR40 agonist activity) (human GPR40) [%]	activation at 1 µM (human GPR40) [%]	SMILES	blood glucose decrease rate (%) (N-STZ-1.5 rats)	insulin increase rate (fold) (N-STZ-1.5 rats)
102		COc1ccc(C(=O)N(CC(C)(C)C)c2cccc(C)n2)c(N2CCC(COc3cc([C@@H](CC(=O)O)C4CC4)ccn3)CC2)c1 [Example 245, (3S)-3-cyclopropyl-3-(2-((1-(2-((2,2-dimethylpropyl)(6-methylpyridin-2-yl)carbamoyl)-5-methoxyphenyl)piperidin-4-yl)methoxy)pyridin-4-yl)propanoic acid]	44.5^$ %	2.1** fold
	103	COc1ccc(C(=O)N(CC(C)(C)C)c2nc(C)cc(C)n2)c(N2CCC(COc3cc([C@@H](CC(=O)O)C4CC4)ccn3)CC2)c1 [Example 246, (3S)-3-cyclopropyl-3-(2-((1-(2-((2,2-dimethylpropyl)(4,6-dimethylpyrimidin-2-yl)carbamoyl)-5-methoxyphenyl)piperidin-4-yl)methoxy)pyridin-4-yl)propanoic acid]	42.7^$ %	2.1** fold
	102	COc1ccc(C(=O)N(CC(C)(C)C)c2ccccn2)c(N2CCC(COc3cc([C@@H](CC(=O)O)C4CC4)ccn3)CC2)c1 [Example 247, (3S)-3-cyclopropyl-3-(2-((1-(2-((2,2-dimethylpropyl)(pyridin-2-yl)carbamoyl)-5-methoxyphenyl)piperidin-4-yl)methoxy)pyridin-4-yl)propanoic acid]	41.5^$ %	2.0** fold
	92	COc1ccc(C(=O)N(CC(C)(C)C)c2ccccn2)c(N2CC[C@H](COc3cccc(C(CC(=O)O)C4CC4)c3)[C@@H](C)C2)c1 (stereo partly drawn) [Example 279, (3S)-cyclopropyl-3-(3-(((3R,4S)-1-(2-((2,2-dimethylpropyl) (pyridin-2-yl)carbamoyl)-5-methoxyphenyl)-3-methylpiperidin-4-yl)methoxy)phenyl)-propanoic acid]		
	6	COc1ccc(C(=O)N(CC(C)(C)C)c2ccccn2)c(N2CC[C@@H](COc3cccc(C(CC(=O)O)C4CC4)c3)[C@@H](C)C2)c1 (stereo partly drawn) [Example 280, (3S)-cyclopropyl-3-(3-(((3R,4R)-1-(2-((2,2-dimethylpropyl) (pyridin-2-yl)carbamoyl)-5-methoxyphenyl)-3-methylpiperidin-4-yl)methoxy)phenyl)-propanoic acid]		
